Patent US20260232692A1, “Methods Of Treating Cancer Using BCL-2 Inhibitors With Iron And Heme Supplementation Therapies” (Emory University, priority 2023, published 2026)
Entries after “also recorded” stand apart in the source; their conditions may differ.

Columns and labels:
VS t(11; 14) cell lines = assay: Rescue of FAC mediated cell death in VS t(11;14) cell lines; type: cell-based; conditions: in the presence and absence of venetoclax
Description: Intracellular iron overload, ROS mediated lipid peroxidation, and loss of GSH/GPX4 mediated antioxidant defenses are all features of ferroptosis. Experiments were performed to determine whether FAC supplementation in VS t(11; 14) MM promotes cell death via ferroptosis. VS t(11; 14) cell lines were treated with a ferrostatin (Fn-1), a synthetic antioxidant that acts via a reductive mechanism to prevent damage to membrane lipids and thereby, inhibits cell death. Inhibiting ferroptosis was able to fully rescue the cell death induced by FAC both in the presence and absence of venetoclax (FIG. 8B). Boc-D-FMK is a caspase inhibitor that inhibits apoptosis.

[1] = tested on: venetoclax sensitive (VS) multiple myeloma (MM) cell lines; assay: Hemin/5-ALA supplementation and Ven sensitivity in VS MM cell lines, Annexin V/DAPI flow cytometry; type: cell-based; conditions: 50 μM Hemin/5-ALA pre-treatment 24 hours, then Ven 24 hrs
Description: Cell death/viability was assessed by Annexin V/DAPI flow cytometric staining.
To test the necessity for reduced heme synthesis for Ven sensitivity in t(11; 14) MM, Ven treated cells were supplemented with either the heme synthesis precursor 5-ALA or hemin (oxidized heme and active ingredient of clinically approved Panhematin™).

MEK-ERK-mTORC1 signaling = MEK-ERK-mTORC1 signaling in whole cell lysates of VS MM treated with hemin; type: cell-based; conditions: 50 μM hemin and/or 0.05 μM Ven for 18 h
Description: Whole cell lysates of indicated lines were treated with 50 μM hemin and/or 0.05 μM Ven for 18 h. Indicated VS cells were treated with 50 µM hemin and 0.05 μM Ven and RAF, MEK, or ERK-inhibitors. Cell death/viability was evaluated by Annexin V/DAPI flow cytometric staining.

[2] = tested on: venetoclax sensitive acute myeloid leukemia (AML) cell lines; assay: Hemin supplementation and venetoclax sensitivity in AML cell lines; type: cell-based
[3] = tested on: VS t(11; 14) MM cell lines; assay: Growth/viability of VS t(11;14) MM cell lines under iron chelation or supplementation (CellTiter-Glo 3D); type: cell-based; conditions: iron chelation with DFO or supplementation with FAC (500 μM FAC up to 96 h, FIG. 7A)
Description: Cells were treated with 500 μM FAC up to 96 h and assessed for viability using CellTiter-Glo® 3D Cell Viability Assay.
Iron is a cofactor for the maintenance of ETC activity. The impact of modulating iron levels either by chelation with deferoxamine (DFO) or supplementation with ferric ammonium citrate (FAC) was assessed in a panel of VS t(11; 14) and VR non t(11; 14) MM cell lines.

[4] = tested on: reactive oxygen species (ROS) in VS t(11; 14) MM; conditions: FAC treated VS t(11;14) MM
Text: (§1) Free or excess intracellular iron is a potent inducer of reactive oxygen species (ROS) and oxidative stress.

[5] = tested on: iron homeostasis-related protein in VS t(11; 14) cell lines
Description: FIG. 8B show data on the expression of iron homeostasis-related protein in whole cell lysates supplemented with 500 μM FAC for 72 h in indicated cell lines by immunoblotting using actin as a loading control. Indicated cell lines were treated with a ferroptotic inhibitor, ferrostatin (Fn-1).
as §1

t(11; 14) patient sample = conditions: FAC 250 μM and 500 μM, venetoclax 0.001, 0.005 and 0.01 μM, FIG. 7C

COC(=O)CC(NC(=O)OC(C)(C)C)C(=O)CF [Boc-D-FMK]
rescue of cell death induced by FAC (VS t(11; 14) cell lines): not able to rescue

CCOC(=O)c1ccc(NC2CCCCC2)c(N)c1 [ferrostatin]
rescue of cell death induced by FAC (VS t(11; 14) cell lines): sufficient to mitigate; also recorded: fully rescue

C=CC1=C(C)c2cc3[n-]c(cc4[n-]c(cc5nc(cc1n2)C(C)=C5C=C)c(C)c4CCC(=O)O)c(CCC(=O)O)c3C.[Fe+2] [hemin, [7,12-diethenyl-3,8,13,17-tetramethyl-21H,23H-porphine-2,18-dipropanoato(2-)-N21,N22,N23,N24] iron]
reversal (rescue) of Ven sensitivity [1]: significantly reversed; also recorded: reverses
MEK-ERK-mTORC1 signaling (MEK-ERK-mTORC1 signaling): restores
reversal of venetoclax sensitivity [2]: reverses

ferric ammonium citrate [FAC]
effect on growth/proliferation of VS cell lines [3]: specifically inhibit the proliferation; also recorded: growth suppressive effect
cytosolic ROS levels [4]: not in cytosolic ROS levels
mitochondrial ROS ([4]; 48 h): significant elevation
cystine-glutamate antiporter SLC7A11 expression ([5]; FAC treatment): not altered
iron importer TFR1 expression ([5]; FAC treatment): reduction
iron storage protein ferritin expression ([5]; FAC treatment): increase
glutathione peroxidase 4 (GPX4) protein expression ([5]; all VS t(11;14) cell lines, 500 μM FAC for 72 h): consistent reduction
sensitivity to venetoclax with iron supplementation (t(11; 14) patient sample): A similar response
